Experimental data taken from patent publication US20020051978A1, “Methods and compositions for the identification, assessment, prevention and therapy of human cancers” (priority 2000, published 2002).
Where two headings read alike, the source gives them in different places.

Tests used:
[1] = test system: 60 cancer cell lines (NCI 60 cancer cell line series); conditions: cited from earlier work
[2] = test system: 60 cancer cell lines (NCI 60 cancer cell line series); experiment: NCI-DTP in vitro cancer screen, sulforhodamine B (SRB) growth inhibition, 48 hour exposure; type: cell-based, human
In short: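 Values come from the NCI-DTP screen database: -log GI50, the concentration giving 50% growth inhibition, derived from SRB cell-mass dose-response curves. Each line seeded at its own density, treated day 1 at five ten-fold-spaced doses in duplicate wells, stained after 48 h.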

N[C@@H](Cc1ccc(N(CCCl)CCCl)cc1)C(=O)O [Melphalan]
-Log (GI50) ([1]; Breast BT-549 (CL5013)): 4.4 | -Log (GI50) ([1]; Breast HS-578T CL5006): 4.3 | -Log (GI50) ([1]; Breast MCF7(I) (CL5001)): 5.0 | -Log (GI50) ([1]; Breast MCF7/ADRr (CL5002)): 4.4 | -Log (GI50) ([1]; Breast MDA-MB-231 CL5005): 4.3 | -Log (GI50) ([1]; Breast MDA-MB-435 (CL5011)): 4.4 | -Log (GI50) ([1]; Breast MDA-N CL5012): 4.3 | -Log (GI50) ([1]; Breast T-47D (CL5014)): 4.9 | -Log (GI50) ([1]; CNS SF-268 CL12014): 4.7 | -Log (GI50) ([1]; CNS SF-295 CL12015): 4.7 | -Log (GI50) ([1]; CNS SF-539 CL12016): 4.8 | -Log (GI50) ([1]; CNS SNB-19 (CL12002)): 4.3 | -Log (GI50) ([1]; CNS SNB-75(I) CL12005): 4.5 | -Log (GI50) ([1]; CNS U251(I) CL12009): 4.6 | -Log (GI50) ([1]; Colon COLO-250 CL4010): 4.4 | -Log (GI50) ([1]; Colon HCC-2998 (CL4002)): 4.3 | -Log (GI50) ([1]; Colon HCT-15 CL4015): 4.4 | -Log (GI50) ([1]; Colon HCT-116 (CL4003)): 4.4 | -Log (GI50) ([1]; Colon HT29(I) CL4001): 4.1 | -Log (GI50) ([1]; Colon KM12 (CL4017)): 4.1 | -Log (GI50) ([1]; Colon SW-620 (CL4009)): 4.5 | -Log (GI50) ([1]; Leukemia CCRF-CEM(I) (CL7003)): 5.5 | -Log (GI50) ([1]; Leukemia HL-60(I) (CL7008)): 5.5 | -Log (GI50) ([1]; Leukemia K562(I) CL7005): 4.3 | -Log (GI50) ([1]; Leukemia MOLT-4 (CL7006)): 5.6 | -Log (GI50) ([1]; Leukemia RPMI-8226(I) (CL7010)): 4.4 | -Log (GI50) ([1]; Leukemia SR CL7019): 5.8 | -Log (GI50) ([1]; Melanoma LOX IMVI CL10001): 4.7 | -Log (GI50) ([1]; Melanoma M14 (CL10014)): 4.6 | -Log (GI50) ([1]; Melanoma MALME-3M CL10002): 4.6 | -Log (GI50) ([1]; Melanoma SK-MEL-2 (CL10005)): 4.2 | -Log (GI50) ([1]; Melanoma SK-MEL-5 (CL10007)): 4.4 | -Log (GI50) ([1]; Melanoma SK-MEL-28 (CL10008)): 4.3 | -Log (GI50) ([1]; Melanoma UACC-62 (CL10020)): 4.9 | -Log (GI50) ([1]; Melanoma UACC-257 (CL10021)): 4.4 | -Log (GI50) ([1]; NCSLC NCI-H522 CL1003): 4.6 | -Log (GI50) ([1]; NSCLC A549/ATCC (CL1004)): 4.5 | -Log (GI50) ([1]; NSCLC EKVX (CL1008)): 4.3 | -Log (GI50) ([1]; NSCLC HOP-62 (CL1026)): 4.8 | -Log (GI50) ([1]; NSCLC HOP-92 (CL1029)): 4.4 | -Log (GI50) ([1]; NSCLC NCI-H23(I) CL1001): 4.6 | -Log (GI50) ([1]; NSCLC NCI-H226 CL1013): 4.4 | -Log (GI50) ([1]; NSCLC NCI-H332M CL1017): 4.1 | -Log (GI50) ([1]; NSCLC NCI-H460 CL1021): 5.2 | -Log (GI50) ([1]; Ovarian IGROV1 CL6010): 4.3 | -Log (GI50) ([1]; Ovarian OVCAR-3 CL6001): 4.4 | -Log (GI50) ([1]; Ovarian OVCAR-4 CL6002): 4.4 | -Log (GI50) ([1]; Ovarian OVCAR-5 CL6003): 4.3 | -Log (GI50) ([1]; Ovarian OVCAR-8 CL6005): 4.4 | -Log (GI50) ([1]; Ovarian SK-OV-3 CL6011): 4.5 | -Log (GI50) ([1]; Prostate DU-145 CL11003): 4.3 | -Log (GI50) ([1]; Prostate PC-3(I) CL11001): 4.4 | -Log (GI50) ([1]; Renal 786-O CL9018): 4.8 | -Log (GI50) ([1]; Renal A498 CL9013): 4.0 | -Log (GI50) ([1]; Renal ACHN CL9023): 5.0 | -Log (GI50) ([1]; Renal CAKI-1 CL9015): 5.0 | -Log (GI50) ([1]; Renal RXF-393 CL9016): 4.7 | -Log (GI50) ([1]; Renal SN12C CL9008): 4.8 | -Log (GI50) ([1]; Renal TK10 CL9024): 4.2 | -Log (GI50) ([1]; Renal UO-31 CL9004): 4.3 | classification of cell line as Low(1), Medium(2) or High(3) sensitivity to compound [2]: 2 | classification of cell line as Low(1), Medium(2) or High(3) sensitivity to compound ([2]; Colon COLO-250 CL4010): 2 | classification of cell line as Low(1), Medium(2) or High(3) sensitivity to compound ([2]; Colon HCC-2998 (CL4002)): 2 | classification of cell line as Low(1), Medium(2) or High(3) sensitivity to compound ([2]; Colon HCT-15 CL4015): 2 | classification of cell line as Low(1), Medium(2) or High(3) sensitivity to compound ([2]; Colon HCT-116 (CL4003)): 2 | classification of cell line as Low(1), Medium(2) or High(3) sensitivity to compound ([2]; Colon HT29(I) CL4001): 1 | classification of cell line as Low(1), Medium(2) or High(3) sensitivity to compound ([2]; Colon KM12 (CL4017)): 1 | classification of cell line as Low(1), Medium(2) or High(3) sensitivity to compound ([2]; Colon SW-620 (CL4009)): 2 | classification of cell line as Low(1), Medium(2) or High(3) sensitivity to compound ([2]; Leukemia CCRF-CEM(I) (CL7003)): 3 | classification of cell line as Low(1), Medium(2) or High(3) sensitivity to compound ([2]; Leukemia HL-60(I) (CL7008)): 3 | classification of cell line as Low(1), Medium(2) or High(3) sensitivity to compound ([2]; Leukemia K562(I) CL7005): 2 | classification of cell line as Low(1), Medium(2) or High(3) sensitivity to compound ([2]; Leukemia MOLT-4 (CL7006)): 3 | classification of cell line as Low(1), Medium(2) or High(3) sensitivity to compound ([2]; Leukemia RPMI-8226(I) (CL7010)): 2 | classification of cell line as Low(1), Medium(2) or High(3) sensitivity to compound ([2]; Leukemia SR CL7019): 3 | classification of cell line as Low(1), Medium(2) or High(3) sensitivity to compound ([2]; Melanoma LOX IMVI CL10001): 2 | classification of cell line as Low(1), Medium(2) or High(3) sensitivity to compound ([2]; Melanoma M14 (CL10014)): 2 | classification of cell line as Low(1), Medium(2) or High(3) sensitivity to compound ([2]; Melanoma MALME-3M CL10002): 2 | classification of cell line as Low(1), Medium(2) or High(3) sensitivity to compound ([2]; Melanoma SK-MEL-2 (CL10005)): 2 | classification of cell line as Low(1), Medium(2) or High(3) sensitivity to compound ([2]; Melanoma SK-MEL-5 (CL10007)): 2 | classification of cell line as Low(1), Medium(2) or High(3) sensitivity to compound ([2]; Melanoma SK-MEL-28 (CL10008)): 2 | classification of cell line as Low(1), Medium(2) or High(3) sensitivity to compound ([2]; Melanoma UACC-62 (CL10020)): 3 | classification of cell line as Low(1), Medium(2) or High(3) sensitivity to compound ([2]; Melanoma UACC-257 (CL10021)): 2 | classification of cell line as Low(1), Medium(2) or High(3) sensitivity to compound ([2]; NSCLC A549/ATCC (CL1004)): 2 | classification of cell line as Low(1), Medium(2) or High(3) sensitivity to compound ([2]; NSCLC EKVX (CL1008)): 2 | classification of cell line as Low(1), Medium(2) or High(3) sensitivity to compound ([2]; NSCLC HOP-62 (CL1026)): 2 | classification of cell line as Low(1), Medium(2) or High(3) sensitivity to compound ([2]; NSCLC HOP-92 (CL1029)): 2 | classification of cell line as Low(1), Medium(2) or High(3) sensitivity to compound ([2]; NSCLC NCI-H226 CL1013): 2 | sensitivity class NSCLC NCI-H23(I) CL1001 ([2]; cell line NSCLC NCI-H23(I), CL1001): 2 | sensitivity class NSCLC NCI-H332M CL1017 ([2]; cell line NSCLC NCI-H332M, CL1017): 1 | sensitivity class NSCLC NCI-H460 CL1021 ([2]; cell line NSCLC NCI-H460, CL1021): 3 | sensitivity class NSCLC NCI-H522 CL1003 ([2]; cell line NSCLC NCI-H522, CL1003): 2 | sensitivity class Ovarian IGROV1 CL6010 ([2]; cell line Ovarian IGROV1, CL6010): 2 | sensitivity class Ovarian OVCAR-3 CL6001 ([2]; cell line Ovarian OVCAR-3, CL6001): 2 | sensitivity class Ovarian OVCAR-4 CL6002 ([2]; cell line Ovarian OVCAR-4, CL6002): 2 | sensitivity class Ovarian OVCAR-5 CL6003 ([2]; cell line Ovarian OVCAR-5, CL6003): 2 | sensitivity class Ovarian OVCAR-8 CL6005 ([2]; cell line Ovarian OVCAR-8, CL6005): 2 | sensitivity class Ovarian SK-OV-3 CL6011 ([2]; cell line Ovarian SK-OV-3, CL6011): 2 | sensitivity class Prostate DU-145 CL11003 ([2]; cell line Prostate DU-145, CL11003): 2 | sensitivity class Prostate PC-3(I) CL11001 ([2]; cell line Prostate PC-3(I), CL11001): 2 | sensitivity class Renal 786-O CL9018 ([2]; cell line Renal 786-O, CL9018): 2 | sensitivity class Renal A498 CL9013 ([2]; cell line Renal A498, CL9013): 1 | sensitivity class Renal ACHN CL9023 ([2]; cell line Renal ACHN, CL9023): 3 | sensitivity class Renal CAKI-1 CL9015 ([2]; cell line Renal CAKI-1, CL9015): 3 | sensitivity class Renal RXF-393 CL9016 ([2]; cell line Renal RXF-393, CL9016): 2 | sensitivity class Renal SN12C CL9008 ([2]; cell line Renal SN12C, CL9008): 2 | sensitivity class Renal TK10 CL9024 ([2]; cell line Renal TK10, CL9024): 1 | sensitivity class Renal UO-31 CL9004 ([2]; cell line Renal UO-31, CL9004): 2
